The source of these data is ChEMBL document CHEMBL1151411, “Plant Anticancer Agents. XIII. Constituents of Austrocedrus chilensis” (1983).

SMILES strings stand for the structures. ≈ marks a conversion by molar mass, not a printed value.

The experiment has as its system KB. Briefly: Cytotoxicity against human KB cells. It counts as functional. Particulars: read-out: ED50 (the source's name).

For `CC(C)C1=CC2(O)CC[C@H]3C(C)(C)CCC[C@]3(CO)C2=CC1=O` (some centres not stated), the EC50 came out at 16 µg/mL (≈ 50.2 µM).

Turning to `CC(C)c1cc2c(cc1O)[C@@]1(CO)CCCC(C)(C)[C@@H]1CC2` [PISIFEROL], the EC50 was determined as 100 µg/mL (≈ 331 µM).
